Values joined by “and” are separate entries in the source; they are usually repeats but may differ in a detail not shown here. Identical values can stand only once. Toxic doses and inconclusive results are not listed.

This note sets out measurements from PubChem BioAssay AID256 (DTP/NCI, 2004).

The test system of the test is CD2F1 mice, L1210 leukemia ip, survival T/C. In words: NCI In Vivo Anticancer Drug Screen. Data for tumor model L1210 Leukemia (intraperitoneal) in CD2F1 (CDF1) mice. To be noted: higher = longer survival. In short, it runs like this: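 In this screen, transplantable tumors were grown in mice given either the compound or its vehicle. Results were expressed as the treated measurement relative to the control measurement.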

Where [1] appears, read: endpoint: mean survival time, dose: 6.25 mg/kg/injection, schedule: Q01DX005 (ip), vehicle: water.
Where [2] appears, read: endpoint: mean survival time, dose: 12.5 mg/kg/injection, schedule: Q01DX005 (ip), vehicle: water.
Where [3] appears, read: endpoint: mean survival time, dose: 25.0 mg/kg/injection, schedule: Q01DX005 (ip), vehicle: water.
[4] abbreviates: endpoint: mean survival time, dose: 50.0 mg/kg/injection, schedule: Q01DX005 (ip), vehicle: water.
Where [5] appears, read: endpoint: mean survival time, dose: 50.0 mg/kg/injection, schedule: Q04DX003 (ip), vehicle: saline with Tween-80.
Where [6] appears, read: endpoint: mean survival time, dose: 100.0 mg/kg/injection, schedule: Q01DX009 (ip), vehicle: saline.
[7] abbreviates: endpoint: mean survival time, dose: 200.0 mg/kg/injection, schedule: Q01DX009 (ip), vehicle: saline.
The mark [8] stands for this setting: endpoint: mean survival time, dose: 400.0 mg/kg/injection, schedule: Q01DX009 (ip), vehicle: saline.
Where [9] appears, read: endpoint: mean survival time, dose: 100.0 mg/kg/injection, schedule: Q01DX009 (ip), vehicle: saline with Tween-80.
The mark [10] stands for this setting: endpoint: mean survival time, dose: 200.0 mg/kg/injection, schedule: Q01DX009 (ip), vehicle: saline with Tween-80.
Where [11] appears, read: endpoint: mean survival time, dose: 400.0 mg/kg/injection, schedule: Q01DX009 (ip), vehicle: saline with Tween-80.

As to `CC(C)NC(=O)NO`, the T/C (endpoint: mean survival time, dose: 4.0 mg/kg/injection, schedule: Q03HX024 (ip), vehicle: saline) is 95 % of control; the T/C (endpoint: mean survival time, dose: 8.0 mg/kg/injection, schedule: Q03HX024 (ip), vehicle: saline) is 98 % of control; the T/C (endpoint: mean survival time, dose: 16.0 mg/kg/injection, schedule: Q03HX024 (ip), vehicle: saline) is 103 % of control; the T/C (endpoint: mean survival time, dose: 32.0 mg/kg/injection, schedule: Q03HX024 (ip), vehicle: saline) was 98 % of control; the T/C (endpoint: mean survival time, dose: 62.0 mg/kg/injection, schedule: Q03HX024 (ip), vehicle: saline with Tween-80) was 87 % of control; the T/C (endpoint: mean survival time, dose: 64.0 mg/kg/injection, schedule: Q03HX024 (ip), vehicle: saline) is 98 % of control.

Regarding `CC/C(=C\c1ccc(Cl)cc1)[N+](=O)[O-]`, the T/C runs as follows: (endpoint: mean survival time, dose: 12.5 mg/kg/injection, schedule: Q04DX003 (ip), vehicle: Klucel (hydroxypropylcellulose) (HPC)) 102 % of control; (endpoint: mean survival time, dose: 25.0 mg/kg/injection, schedule: Q04DX003 (ip), vehicle: Klucel (hydroxypropylcellulose) (HPC)) 97 % of control; (endpoint: mean survival time, dose: 50.0 mg/kg/injection, schedule: Q04DX003 (ip), vehicle: Klucel (hydroxypropylcellulose) (HPC)) 97 % of control.

For the compound `N#Cc1[nH]nc2ncnc(NC(=O)C(F)(F)F)c12`, the T/C by setting is: under setting [1], 111 % of control; under setting [2], 96 % of control; under setting [3], 107 % of control; under setting [4], 96 % of control.

On to `N#Cc1cn(C2OC(CO)C(O)C2O)c2ncnc(NC(=O)c3ccccc3)c12` (centres undefined), for which the T/C reads like this: (endpoint: mean survival time, dose: 0.78 mg/kg/injection, schedule: Q01DX001 (ip), vehicle: suspension in saline) 95 % of control; (endpoint: mean survival time, dose: 1.56 mg/kg/injection, schedule: Q01DX001 (ip), vehicle: suspension in saline) 106 % of control; (endpoint: mean survival time, dose: 3.13 mg/kg/injection, schedule: Q01DX001 (ip), vehicle: suspension in saline) 110 % of control; (endpoint: mean survival time, dose: 6.25 mg/kg/injection, schedule: Q01DX001 (ip), vehicle: suspension in saline) 108 % of control; (endpoint: mean survival time, dose: 12.5 mg/kg/injection, schedule: Q01DX001 (ip), vehicle: suspension in saline) 111 % of control.

Consider `CS(=O)(=O)OCCN(CCOS(C)(=O)=O)c1ccc([N+](=O)[O-])cc1`, for which the T/C is 100 % of control (endpoint: mean survival time, dose: 12.5 mg/kg/injection, schedule: Q01DX010 (ip), vehicle: saline); 100 % of control (endpoint: mean survival time, dose: 25.0 mg/kg/injection, schedule: Q01DX010 (ip), vehicle: saline); 115 % of control (endpoint: mean survival time, dose: 50.0 mg/kg/injection, schedule: Q01DX010 (ip), vehicle: saline); 106 % of control (endpoint: mean survival time, dose: 100.0 mg/kg/injection, schedule: Q01DX010 (ip), vehicle: saline).

Turning to `NC(=O)C(=O)N/N=C/c1ccc2c(c1)CCC2`, the T/C runs as follows: (endpoint: mean survival time, dose: 12.5 mg/kg/injection, schedule: Q04DX003 (ip), vehicle: saline with Tween-80) 97 % of control; (endpoint: mean survival time, dose: 25.0 mg/kg/injection, schedule: Q04DX003 (ip), vehicle: saline with Tween-80) 94 % of control; under setting [5], 92 % of control.

As to `OC1CCN(c2c3ccccc3nc3ccccc23)CC1`, the T/C (endpoint: mean survival time, dose: 12.5 mg/kg/injection, schedule: Q04DX002 (ip), vehicle: saline) was 100 % of control; the T/C (endpoint: mean survival time, dose: 25.0 mg/kg/injection, schedule: Q04DX002 (ip), vehicle: saline) was 100 % of control; the T/C (endpoint: mean survival time, dose: 50.0 mg/kg/injection, schedule: Q04DX002 (ip), vehicle: saline) was 116 % of control.

For the compound `C=C1C2CCC3C2C(C)(C)CCCC13C` (centres undefined), the T/C reads like this: under setting [6], 98 % of control; (endpoint: mean survival time, dose: 100.0 mg/kg/injection, schedule: Q04DX003 (ip), vehicle: saline with Tween-80) 103 % of control; under setting [7], 97 % of control; (endpoint: mean survival time, dose: 200.0 mg/kg/injection, schedule: Q04DX003 (ip), vehicle: saline with Tween-80) 104 % of control; under setting [8], 101 % of control; (endpoint: mean survival time, dose: 400.0 mg/kg/injection, schedule: Q04DX003 (ip), vehicle: saline with Tween-80) 93 % of control.

On to `NC(=O)c1ccc[n+](Cc2ccccc2)c1`, for which the T/C (endpoint: mean survival time, dose: 75.0 mg/kg/injection, schedule: Q01DX001 (ip), vehicle: saline) is 98 % of control and the T/C (endpoint: mean survival time, dose: 150.0 mg/kg/injection, schedule: Q01DX001 (ip), vehicle: saline) was 96 % of control.

As for `CCCCn1cnc2c(=S)nc(N)[nH]c21`, the T/C reads like this: (endpoint: mean survival time, dose: 25.0 mg/kg/injection, schedule: Q01DX009 (ip), vehicle: saline with Tween-80) 162 % of control; (endpoint: mean survival time, dose: 50.0 mg/kg/injection, schedule: Q01DX009 (ip), vehicle: saline with Tween-80) 171 % of control; under setting [5], 157 % of control.

Regarding `CCOC(C)C(O)(c1ccc(N(C)C)cc1)c1ccc(N(C)C)cc1` (centres undefined), the T/C is 95 % of control (endpoint: mean survival time, dose: 100.0 mg/kg/injection, schedule: Q04DX003 (ip), vehicle: other); 91 % of control (endpoint: mean survival time, dose: 200.0 mg/kg/injection, schedule: Q04DX003 (ip), vehicle: other); 97 % of control (endpoint: mean survival time, dose: 400.0 mg/kg/injection, schedule: Q04DX003 (ip), vehicle: other).

Take `COc1ccccc1NC(=O)Oc1ccc(-c2ccccc2)cc1Cl`: the T/C by setting is: (endpoint: mean survival time, dose: 100.0 mg/kg/injection, schedule: Q04DX002 (ip), vehicle: saline with Tween-80) 100 % of control; (endpoint: mean survival time, dose: 200.0 mg/kg/injection, schedule: Q04DX002 (ip), vehicle: saline with Tween-80) 103 % of control; (endpoint: mean survival time, dose: 400.0 mg/kg/injection, schedule: Q04DX002 (ip), vehicle: saline with Tween-80) 88 % of control.

With `Cc1c(O)c(Br)c(C)c(O)c1Br` (tested in a mixture with another compound), the T/C (endpoint: mean survival time, dose: 100.0 mg/kg/injection, schedule: Q01DX001 (ip), vehicle: saline) is 98 % of control and the T/C (endpoint: mean survival time, dose: 200.0 mg/kg/injection, schedule: Q01DX001 (ip), vehicle: saline) was 101 % of control.

For `c1ccc(CCNc2ncnc3nc[nH]c23)cc1`, the T/C is, setting by setting: under setting [1], 94 % of control; under setting [2], 96 % of control; under setting [3], 96 % of control; under setting [4], 97 % of control; (endpoint: mean survival time, dose: 100.0 mg/kg/injection, schedule: Q01DX005 (ip), vehicle: water) 92 % of control; (endpoint: mean survival time, dose: 200.0 mg/kg/injection, schedule: Q01DX005 (ip), vehicle: water) 111 % of control.

As for `CCC1(c2ccccc2)C(=O)N(Cl)C(=O)N(Cl)C1=O`, the T/C runs as follows: (endpoint: mean survival time, dose: 25.0 mg/kg/injection, schedule: Q01DX001 (ip), vehicle: saline with Tween-80) 101 % of control; (endpoint: mean survival time, dose: 50.0 mg/kg/injection, schedule: Q01DX001 (ip), vehicle: saline with Tween-80) 95 % of control; (endpoint: mean survival time, dose: 100.0 mg/kg/injection, schedule: Q01DX001 (ip), vehicle: saline with Tween-80) 95 % of control and 100 % of control.

On to `COC(=O)NS(=O)(=O)Nc1ccccc1`, for which the T/C is 93 % of control under setting [9], 93 % of control under setting [10] and 87 % of control under setting [11].

Take `CCOc1ccc(OCC)c(NC(=O)c2ccccc2)c1`: the T/C is, setting by setting: under setting [9], 98 % of control; under setting [10], 107 % of control; under setting [11], 100 % of control.

As for `COC(=O)C(CC(C)C)NC(=O)C(CSC(c1ccccc1)(c1ccccc1)c1ccccc1)NC(c1ccccc1)(c1ccccc1)c1ccccc1` (centres undefined), the T/C was 97 % of control (endpoint: mean survival time, dose: 50.0 mg/kg/injection, schedule: Q01DX009 (ip), vehicle: saline); 97 % of control under setting [6]; 92 % of control under setting [7]; 97 % of control under setting [8].

As to `C1=Nc2c(ccc3ccccc23)CS1`, the T/C was 91 % of control (endpoint: mean survival time, dose: 25.0 mg/kg/injection, schedule: Q04DX002 (ip), vehicle: other); 95 % of control (endpoint: mean survival time, dose: 50.0 mg/kg/injection, schedule: Q04DX002 (ip), vehicle: other); 100 % of control (endpoint: mean survival time, dose: 100.0 mg/kg/injection, schedule: Q04DX002 (ip), vehicle: other).

As for `CSc1nc(Cl)c2cc(Cl)[nH]c2n1`, the T/C (endpoint: median survival time, dose: 1.5 mg/kg/injection, schedule: Q01DX009 (ip), vehicle: saline with Tween-80) was 104 % of control; the T/C (endpoint: median survival time, dose: 3.0 mg/kg/injection, schedule: Q01DX009 (ip), vehicle: saline with Tween-80) was 107 % of control; the T/C (endpoint: median survival time, dose: 6.0 mg/kg/injection, schedule: Q01DX009 (ip), vehicle: saline with Tween-80) is 110 % of control; the T/C (endpoint: median survival time, dose: 50.0 mg/kg/injection, schedule: Q01DX005 (ip), vehicle: saline with Tween-80) is 100 % of control; the T/C (endpoint: median survival time, dose: 100.0 mg/kg/injection, schedule: Q01DX005 (ip), vehicle: saline with Tween-80) is 101 % of control.
